In patent US9790210B2, “N-(monocyclic aryl),N'-pyrazolyl-urea, thiourea, guanidine and cyanoguanidine compounds as TrkA kinase inhibitors” (Array BioPharma Inc., priority 2012, dated 2017):

Tests used:
TrkA [1] = target: T1, TrkA (Homo sapiens, UniProt P04629); assay: KinaseProfiler; assay type: biochemical; set-up: purchased Millipore, Inc. (KinaseProfiler service); settings: 10 μM, ATP near Km
Method: A representative compound (Example 15) of the invention was tested for off-target kinase activity at a concentration of 10 μM by Millipore, Inc. in their KinaseProfiler™ service against all the kinases available in their full kinase panel. The compound was run in duplicate at a concentration of ATP near the Km for each individual kinase according to Millipore's specifications. The results are shown in Table B. Data are reported as percent of control (POC) and are the average of the two replicates.

mTOR/FKBP12 = target: T2, mTOR/FKBP12 (Homo sapiens, UniProt P42345); assay: KinaseProfiler; assay type: biochemical; settings: 10 μM, ATP near Km
T2 construct: purchased Millipore, Inc. (KinaseProfiler service)
T2 sequence (P42345 1362-2549 limits assumed): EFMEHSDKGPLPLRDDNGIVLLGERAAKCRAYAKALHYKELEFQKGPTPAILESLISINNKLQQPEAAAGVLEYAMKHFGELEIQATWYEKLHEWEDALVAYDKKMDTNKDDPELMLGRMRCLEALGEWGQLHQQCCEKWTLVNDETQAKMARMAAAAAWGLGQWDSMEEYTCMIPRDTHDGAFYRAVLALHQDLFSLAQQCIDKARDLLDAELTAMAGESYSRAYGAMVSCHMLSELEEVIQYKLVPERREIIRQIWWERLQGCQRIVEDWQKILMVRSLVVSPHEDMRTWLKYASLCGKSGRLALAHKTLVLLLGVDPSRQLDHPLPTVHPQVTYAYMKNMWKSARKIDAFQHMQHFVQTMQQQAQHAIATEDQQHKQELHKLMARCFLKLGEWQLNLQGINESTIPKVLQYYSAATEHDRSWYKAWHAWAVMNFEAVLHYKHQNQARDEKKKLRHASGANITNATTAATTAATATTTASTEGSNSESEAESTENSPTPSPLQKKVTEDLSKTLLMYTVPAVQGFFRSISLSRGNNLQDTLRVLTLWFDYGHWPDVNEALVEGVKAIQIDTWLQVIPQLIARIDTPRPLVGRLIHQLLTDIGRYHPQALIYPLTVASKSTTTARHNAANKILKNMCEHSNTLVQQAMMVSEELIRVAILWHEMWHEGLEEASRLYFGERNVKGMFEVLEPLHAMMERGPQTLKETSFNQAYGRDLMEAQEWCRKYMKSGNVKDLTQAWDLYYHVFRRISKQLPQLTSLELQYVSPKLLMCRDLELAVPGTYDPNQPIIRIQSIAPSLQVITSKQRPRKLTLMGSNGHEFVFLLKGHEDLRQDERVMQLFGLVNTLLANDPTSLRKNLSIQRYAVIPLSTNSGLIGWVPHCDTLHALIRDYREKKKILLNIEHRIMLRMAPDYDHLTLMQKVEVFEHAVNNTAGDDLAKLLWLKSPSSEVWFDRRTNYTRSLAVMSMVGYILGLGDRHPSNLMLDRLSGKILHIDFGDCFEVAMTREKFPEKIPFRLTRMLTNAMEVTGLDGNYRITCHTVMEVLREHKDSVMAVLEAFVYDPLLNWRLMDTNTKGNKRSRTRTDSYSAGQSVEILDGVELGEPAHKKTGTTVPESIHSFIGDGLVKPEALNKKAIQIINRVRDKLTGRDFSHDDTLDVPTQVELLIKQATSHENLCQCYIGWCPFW
Summary of the method: (§1)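 10 μM compound, n=2; ATP ~Km per kinase. Readout: POC, mean of duplicates.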

PRKG1beta = target: T3, PRKG1beta (Homo sapiens, UniProt Q13976); assay: KinaseProfiler; assay type: biochemical; settings: 10 μM, ATP near Km
T3 construct: purchased Millipore, Inc. (KinaseProfiler service)
Summary of the method: as §1

GRK6 = target: T4, GRK6 (Homo sapiens, UniProt P43250); assay: KinaseProfiler; assay type: biochemical; settings: 10 μM, ATP near Km
T4 construct: purchased Millipore, Inc. (KinaseProfiler service)
Summary of the method: as §1

PhKgamma2 = target: T5, PhKgamma2 (Homo sapiens, UniProt P15735); assay: KinaseProfiler; assay type: biochemical; settings: 10 μM, ATP near Km
T5 construct: purchased Millipore, Inc. (KinaseProfiler service)
Summary of the method: as §1

SRC = target: T6, SRC (Homo sapiens, UniProt P12931); assay: KinaseProfiler; assay type: biochemical; settings: 10 μM, ATP near Km
T6 construct: purchased Millipore, Inc. (KinaseProfiler service)
T6 sequence (P12931 whole entry): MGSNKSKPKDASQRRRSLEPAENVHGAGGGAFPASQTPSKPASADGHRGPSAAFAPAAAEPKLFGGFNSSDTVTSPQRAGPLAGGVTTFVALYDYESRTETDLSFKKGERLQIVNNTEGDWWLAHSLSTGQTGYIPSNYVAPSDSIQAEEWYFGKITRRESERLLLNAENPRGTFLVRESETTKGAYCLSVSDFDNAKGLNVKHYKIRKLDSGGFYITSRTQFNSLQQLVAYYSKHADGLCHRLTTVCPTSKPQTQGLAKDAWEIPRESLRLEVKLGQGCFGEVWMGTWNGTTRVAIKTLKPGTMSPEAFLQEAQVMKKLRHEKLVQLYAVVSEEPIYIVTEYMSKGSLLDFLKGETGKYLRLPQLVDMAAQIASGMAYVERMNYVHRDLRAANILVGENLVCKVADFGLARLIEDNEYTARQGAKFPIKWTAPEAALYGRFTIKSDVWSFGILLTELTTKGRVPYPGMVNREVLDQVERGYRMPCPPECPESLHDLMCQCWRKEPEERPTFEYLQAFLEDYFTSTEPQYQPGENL
Summary of the method: as §1

Rsk4 = target: T7, Rsk4 (Homo sapiens, UniProt Q9UK32); assay: KinaseProfiler; assay type: biochemical; settings: 10 μM, ATP near Km
T7 construct: purchased Millipore, Inc. (KinaseProfiler service)
Summary of the method: as §1

MICK4_m = target: T8, MICK4_m (Mus musculus, UniProt P47809); assay: KinaseProfiler; assay type: biochemical; settings: 10 μM, ATP near Km
T8 construct: purchased Millipore, Inc. (KinaseProfiler service)
Summary of the method: as §1

EphA1 = target: T9, EphA1 (Homo sapiens, UniProt P21709); assay: KinaseProfiler; assay type: biochemical; settings: 10 μM, ATP near Km
T9 construct: purchased Millipore, Inc. (KinaseProfiler service)
Summary of the method: as §1

ErbB4 = target: T10, ErbB4 (Homo sapiens, UniProt Q15303); assay: KinaseProfiler; assay type: biochemical; settings: 10 μM, ATP near Km
T10 construct: purchased Millipore, Inc. (KinaseProfiler service)
Summary of the method: as §1

CK1gamma3 = target: T11, CK1gamma3 (Homo sapiens, UniProt Q9Y6M4); assay: KinaseProfiler; assay type: biochemical; settings: 10 μM, ATP near Km
T11 construct: purchased Millipore, Inc. (KinaseProfiler service)
Summary of the method: as §1

NEK3 = target: T12, NEK3 (Homo sapiens, UniProt P51956); assay: KinaseProfiler; assay type: biochemical; settings: 10 μM, ATP near Km
T12 construct: purchased Millipore, Inc. (KinaseProfiler service)
Summary of the method: as §1

MST1 = target: T13, MST1 (Homo sapiens, UniProt Q13043); assay: KinaseProfiler; assay type: biochemical; settings: 10 μM, ATP near Km
T13 construct: purchased Millipore, Inc. (KinaseProfiler service)
Summary of the method: as §1

EGFR = target: T14, EGFR (Homo sapiens, UniProt P00533); assay: KinaseProfiler; assay type: biochemical; settings: 10 μM, ATP near Km
T14 construct: purchased Millipore, Inc. (KinaseProfiler service)
Summary of the method: as §1

BTK = target: T15, BTK (Homo sapiens, UniProt Q06187); assay: KinaseProfiler; assay type: biochemical; settings: 10 μM, ATP near Km
T15 construct: purchased Millipore (KinaseProfiler service)
Summary of the method: as §1

Hck = target: T16, Hck (Homo sapiens, UniProt P08631); assay: KinaseProfiler; assay type: biochemical; settings: 10 μM, ATP near Km
T16 construct: purchased Millipore, Inc. (KinaseProfiler service)
Summary of the method: as §1

PKCbetaI = target: T17, PKCbetaI (Homo sapiens, UniProt P05771); assay: KinaseProfiler; assay type: biochemical; settings: 10 μM, ATP near Km
T17 construct: purchased Millipore, Inc. (KinaseProfiler service)
T17 sequence (P05771 whole entry): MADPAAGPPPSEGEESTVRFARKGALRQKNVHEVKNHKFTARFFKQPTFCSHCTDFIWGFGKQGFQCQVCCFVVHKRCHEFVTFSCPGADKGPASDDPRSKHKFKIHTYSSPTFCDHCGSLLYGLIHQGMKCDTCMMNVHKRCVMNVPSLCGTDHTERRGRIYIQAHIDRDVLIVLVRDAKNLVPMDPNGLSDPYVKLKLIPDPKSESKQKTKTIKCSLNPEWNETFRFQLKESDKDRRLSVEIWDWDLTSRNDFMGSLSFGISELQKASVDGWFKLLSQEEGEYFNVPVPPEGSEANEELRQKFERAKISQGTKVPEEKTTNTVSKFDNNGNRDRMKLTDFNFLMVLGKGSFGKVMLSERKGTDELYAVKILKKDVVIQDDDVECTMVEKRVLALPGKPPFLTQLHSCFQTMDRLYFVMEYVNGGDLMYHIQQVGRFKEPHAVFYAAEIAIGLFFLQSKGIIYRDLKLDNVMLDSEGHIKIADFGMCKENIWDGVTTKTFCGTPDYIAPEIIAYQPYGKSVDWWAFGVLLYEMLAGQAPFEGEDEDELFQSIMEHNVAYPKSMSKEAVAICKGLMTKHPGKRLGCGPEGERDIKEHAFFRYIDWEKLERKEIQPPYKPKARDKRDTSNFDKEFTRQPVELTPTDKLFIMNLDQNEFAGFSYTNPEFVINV
Summary of the method: as §1

KIT = target: T18, KIT (Homo sapiens, UniProt P10721); assay: KinaseProfiler; assay type: biochemical; settings: 10 μM, ATP near Km
T18 construct: purchased Millipore, Inc. (KinaseProfiler service)
Summary of the method: as §1

MKK7beta = target: T19, MKK7beta (Homo sapiens, UniProt O14733); assay: KinaseProfiler; assay type: biochemical; settings: 10 μM, ATP near Km
T19 construct: purchased Millipore, Inc. (KinaseProfiler service)
T19 sequence (O14733 whole entry): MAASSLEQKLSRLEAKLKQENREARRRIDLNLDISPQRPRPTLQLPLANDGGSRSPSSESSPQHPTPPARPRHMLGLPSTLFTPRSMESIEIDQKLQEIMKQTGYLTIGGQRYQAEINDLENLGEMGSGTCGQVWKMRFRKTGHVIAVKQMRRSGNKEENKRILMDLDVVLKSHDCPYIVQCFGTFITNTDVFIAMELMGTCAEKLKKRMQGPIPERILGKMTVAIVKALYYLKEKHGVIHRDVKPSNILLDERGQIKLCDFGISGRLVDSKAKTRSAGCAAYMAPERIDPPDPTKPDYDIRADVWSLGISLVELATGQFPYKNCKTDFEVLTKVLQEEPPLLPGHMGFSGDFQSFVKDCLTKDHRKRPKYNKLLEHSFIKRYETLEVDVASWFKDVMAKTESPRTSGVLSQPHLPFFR
Summary of the method: as §1

PKCalpha = target: T20, PKCalpha (Homo sapiens, UniProt P17252); assay: KinaseProfiler; assay type: biochemical; settings: 10 μM, ATP near Km
T20 construct: purchased Millipore, Inc. (KinaseProfiler service)
Summary of the method: as §1

AKT1 = target: T21, AKT1 (Homo sapiens, UniProt P31749); assay: KinaseProfiler; assay type: biochemical; settings: 10 μM, ATP near Km
T21 construct: purchased Millipore (KinaseProfiler service)
Summary of the method: as §1

TLK2 = target: T22, TLK2 (Homo sapiens, UniProt Q86UE8); assay: KinaseProfiler; assay type: biochemical; settings: 10 μM, ATP near Km
T22 construct: purchased Millipore, Inc. (KinaseProfiler service)
T22 sequence (Q86UE8 whole entry): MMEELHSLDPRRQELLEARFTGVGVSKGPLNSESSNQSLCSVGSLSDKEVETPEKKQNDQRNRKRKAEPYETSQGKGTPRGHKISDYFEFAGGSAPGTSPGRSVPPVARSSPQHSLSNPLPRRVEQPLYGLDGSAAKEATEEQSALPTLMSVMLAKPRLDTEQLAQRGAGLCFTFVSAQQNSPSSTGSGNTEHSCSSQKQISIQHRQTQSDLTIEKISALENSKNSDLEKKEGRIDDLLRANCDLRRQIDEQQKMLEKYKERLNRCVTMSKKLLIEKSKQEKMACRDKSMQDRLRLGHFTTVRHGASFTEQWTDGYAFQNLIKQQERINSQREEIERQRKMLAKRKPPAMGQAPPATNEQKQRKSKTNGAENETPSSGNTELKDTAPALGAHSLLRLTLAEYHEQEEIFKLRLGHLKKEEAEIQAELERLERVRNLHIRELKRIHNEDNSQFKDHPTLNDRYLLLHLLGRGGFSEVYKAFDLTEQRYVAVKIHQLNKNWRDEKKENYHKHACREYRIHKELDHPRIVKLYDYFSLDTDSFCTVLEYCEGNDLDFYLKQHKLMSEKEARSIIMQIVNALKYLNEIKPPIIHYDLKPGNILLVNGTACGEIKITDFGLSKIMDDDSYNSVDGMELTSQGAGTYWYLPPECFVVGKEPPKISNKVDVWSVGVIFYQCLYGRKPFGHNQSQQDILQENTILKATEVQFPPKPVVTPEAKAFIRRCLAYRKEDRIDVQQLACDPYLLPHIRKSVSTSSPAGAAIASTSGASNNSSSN
Summary of the method: as §1

PKCbetaII = target: T23, PKCbetaII (Homo sapiens, UniProt P05771); assay: KinaseProfiler; assay type: biochemical; settings: 10 μM, ATP near Km
T23 construct: purchased Millipore, Inc. (KinaseProfiler service)
Summary of the method: as §1

DYRK2 = target: T24, DYRK2 (Homo sapiens, UniProt Q92630); assay: KinaseProfiler; assay type: biochemical; settings: 10 μM, ATP near Km
T24 construct: purchased Millipore, Inc. (KinaseProfiler service)
Summary of the method: as §1

Fms = target: T25, Fms (Homo sapiens, UniProt P07333); assay: KinaseProfiler; assay type: biochemical; settings: 10 μM, ATP near Km
T25 construct: purchased Millipore, Inc. (KinaseProfiler service)
T25 sequence (P07333 20-972): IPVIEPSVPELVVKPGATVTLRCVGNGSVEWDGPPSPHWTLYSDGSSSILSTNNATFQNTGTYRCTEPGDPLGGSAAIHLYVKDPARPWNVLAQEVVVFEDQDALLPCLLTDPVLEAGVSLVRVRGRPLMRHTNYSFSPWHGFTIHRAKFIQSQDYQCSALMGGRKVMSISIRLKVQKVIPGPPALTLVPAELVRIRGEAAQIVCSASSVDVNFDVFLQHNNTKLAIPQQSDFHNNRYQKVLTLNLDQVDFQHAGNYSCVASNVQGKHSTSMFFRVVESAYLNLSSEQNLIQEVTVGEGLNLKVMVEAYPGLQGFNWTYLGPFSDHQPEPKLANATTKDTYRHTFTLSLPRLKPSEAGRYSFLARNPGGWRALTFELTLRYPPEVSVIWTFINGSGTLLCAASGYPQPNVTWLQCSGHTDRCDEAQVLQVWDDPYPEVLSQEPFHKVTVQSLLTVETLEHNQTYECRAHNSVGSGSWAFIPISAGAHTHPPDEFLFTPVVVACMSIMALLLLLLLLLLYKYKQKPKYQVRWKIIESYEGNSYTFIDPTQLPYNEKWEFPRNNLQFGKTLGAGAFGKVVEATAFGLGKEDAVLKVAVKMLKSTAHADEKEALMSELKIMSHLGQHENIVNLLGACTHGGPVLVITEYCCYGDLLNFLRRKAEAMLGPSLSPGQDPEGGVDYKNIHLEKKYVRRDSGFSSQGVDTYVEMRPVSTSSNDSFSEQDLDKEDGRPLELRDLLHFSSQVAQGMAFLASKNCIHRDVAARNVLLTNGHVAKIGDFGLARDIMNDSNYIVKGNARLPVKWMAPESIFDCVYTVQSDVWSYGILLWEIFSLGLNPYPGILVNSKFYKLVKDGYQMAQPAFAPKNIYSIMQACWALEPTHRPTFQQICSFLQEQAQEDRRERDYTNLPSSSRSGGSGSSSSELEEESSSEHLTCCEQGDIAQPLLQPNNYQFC
Summary of the method: as §1

Abl-P = target: T26, Abl-P (Homo sapiens, UniProt P00519); assay: KinaseProfiler; assay type: biochemical; settings: 10 μM, ATP near Km
T26 construct: purchased Millipore (KinaseProfiler service)
Summary of the method: as §1

CHK2 = target: T27, CHK2 (Homo sapiens, UniProt O96017); assay: KinaseProfiler; assay type: biochemical; settings: 10 μM, ATP near Km
T27 construct: purchased Millipore, Inc. (KinaseProfiler service)
Summary of the method: as §1

TrkA [2] = target: T1, TrkA; assay: TrkA LanthaScreen Eu Kinase Binding Assay; set-up: 6HIS tagged cytoplasmic domain from Invitrogen, Catalog No. PV3144; purchased Invitrogen PV3144; settings: averaged IC50; TR-FRET binding assay; read-out: TrkA Enzyme IC50
Method: TrkA binding activity was determined in a TrkA LanthaScreen™ Eu Kinase Binding Assay. 5 nM His-tagged recombinant human TrkA (6HIS tagged cytoplasmic domain from Invitrogen, Catalog No. PV3144) was incubated with 4 nM Alexa-Fluor® Tracer 236 (Invitrogen Cat. No. PV5592), 2 nM biotinylated anti-His (Invitrogen Cat. No. PV6090), and 2 nM europium-labeled Streptavidin (Invitrogen Cat. No. PV5899), in buffer (25 mM MOPS, pH 7.5, 5 mM MgCl2, 0.005% Triton X-100). Three fold serial dilutions of compounds of the invention in DMSO were added to a final percentage of 2% DMSO. After 60-minute incubation at 22° C., the reaction was measured using the EnVision mutlimode plate reader (PerkinElmer) via TR-FRET dual wavelength detection at […]. The percent of control was calculated using a ratiometric emission factor. The IC50 values were determined by fitting a four parameter model to the percent of control data.
Table A provides averaged IC50 values for compounds of the invention when tested in the assay of Example A, where A represents an averaged IC50 value<100 nM; B represents an averaged IC50 value from 100 to 1,000 nM; and C represents an averaged IC50 value from 1,000 to 10,000 nM.
Target sequence in this assay (P04629 440-796 limits assumed): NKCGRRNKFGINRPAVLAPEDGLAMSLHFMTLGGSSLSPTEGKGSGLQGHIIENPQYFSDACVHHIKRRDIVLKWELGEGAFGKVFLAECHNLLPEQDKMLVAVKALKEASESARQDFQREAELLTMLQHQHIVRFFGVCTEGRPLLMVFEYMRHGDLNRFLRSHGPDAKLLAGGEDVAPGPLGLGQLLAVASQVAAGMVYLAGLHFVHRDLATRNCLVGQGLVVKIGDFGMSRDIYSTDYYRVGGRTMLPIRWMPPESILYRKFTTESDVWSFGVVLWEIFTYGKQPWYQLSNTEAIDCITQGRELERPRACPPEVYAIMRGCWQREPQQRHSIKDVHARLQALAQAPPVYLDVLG

COCCCc1cc(Cl)c(Cl)cc1NC(=O)Nc1c(C)c(-c2cnn(C)c2)nn1-c1ccccc1 [Example 15, 1-(4,5-dichloro-2-(3-methoxypropyl)phenyl)-3-(1′,4-dimethyl-1-phenyl-1H,1′H-[3,4′-bipyrazol]-5-yl)urea]
Avg POC (TrkA [1]): 0 POC | Avg POC (mTOR/FKBP12): 97.5 POC | Avg POC (PRKG1beta): 130 POC | Avg POC (GRK6): 103 POC | Avg POC (PhKgamma2): 110.5 POC | Avg POC (SRC): 90 POC | Avg POC (Rsk4): 105 POC | Avg POC (MICK4_m): 137.5 POC | Avg POC (EphA1): 117 POC | Avg POC (ErbB4): 118.5 POC | Avg POC (CK1gamma3): 112.5 POC | Avg POC (NEK3): 120 POC | Avg POC (MST1): 94.5 POC | Avg POC (EGFR): 103 POC | Avg POC (BTK): 119.5 POC | Avg POC (Hck): 89 POC | Avg POC (PKCbetaI): 106 POC | Avg POC (KIT): 99.5 POC | Avg POC (MKK7beta): 140 POC | Avg POC (PKCalpha): 104 POC | Avg POC (AKT1): 120 POC | Avg POC (TLK2): 101 POC | Avg POC (PKCbetaII): 99 POC | Avg POC (DYRK2): 93.5 POC | Avg POC (Fms): 94 POC | Avg POC (Abl-P): 140.5 POC | Avg POC (CHK2): 130 POC | IC50 (TrkA [2]): < 100 nM
